The source of these data is patent publication US7531537B2, “Benzofuran derivative” (Mitsubishi Tanabe Pharma Corporation, priority 2002, dated 2009).

pIC50: −log10 of the molar value.

Series [1] deals with activated blood coagulation factor X (FXa) (Homo sapiens, UniProt P00742). Nature of the series: FXa inhibitory effect. The format is biochemical.
The next series is described as follows: distribution volume. Conditions: in vivo.

activated blood coagulation factor X (FXa), sequence (P00742 235-488 limits assumed): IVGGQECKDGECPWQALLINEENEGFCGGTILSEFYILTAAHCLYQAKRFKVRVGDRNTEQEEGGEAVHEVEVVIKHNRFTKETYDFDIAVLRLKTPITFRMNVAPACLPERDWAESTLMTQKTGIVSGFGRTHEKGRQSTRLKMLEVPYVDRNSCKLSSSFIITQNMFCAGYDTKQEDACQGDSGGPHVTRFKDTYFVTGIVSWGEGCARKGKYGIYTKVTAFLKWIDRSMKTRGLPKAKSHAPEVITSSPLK
activated blood coagulation factor X (FXa), sequence (P00742 41-179 partner limits assumed): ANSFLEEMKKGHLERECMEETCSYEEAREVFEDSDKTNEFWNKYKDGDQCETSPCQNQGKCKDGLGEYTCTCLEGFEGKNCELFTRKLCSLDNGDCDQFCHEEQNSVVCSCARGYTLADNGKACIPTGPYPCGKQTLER

Turning to `CN(C)C(=O)c1ccc2oc(C(=O)Nc3ccc(Cl)cn3)c(NC(=O)[C@H]3CC[C@H](N(C)C=O)CC3)c2c1` [trans-5-dimethylaminocarbonyl-3-[4-(N-formyl-N-methylamino)-cyclohexylcarbonylamino]-N-(5-chloropyridin-2-yl)-benzofuran-2-carboxamide], in series [1], the pIC50 (in general, the negative decadic logarithm of the IC50, by convention in mol/L) was above 7.00. Further, the distribution volume in “distribution volume” came to 0.8 L/kg.
